From US10792289B2 (Horizon Orphan LLC, priority 2009, dated 2020)
Where two headings read alike, the source gives them in different places.

Tested on: P. aeruginosa isolates
Experiment: Phase 2 study: MIC of P. aeruginosa isolates to levofloxacin
Assay type: cell-based
Conditions: Pseudomonas aeruginosa
Description: Efficacy was evaluated by microbiologic assessment of sputum samples, time to need for anti-pseudomonal antimicrobials, the Cystic Fibrosis Questionaire-Revised (CFQ-R), and pulmonary function tests. […] Pair-wise comparisons between all the treatment arms were conducted as secondary analyses.

SMILES: C[C@H]1COc2c(N3CCN(C)CC3)c(F)cc3c(=O)c(C(=O)O)cn1c23 [Levofloxacin, levofloxacin]
- MIC50 (336 h, MITT, combined 240 mg QD and BID, Day 14, read-out: MIC50 (all organisms)): 4 µg/mL
- MIC90 (336 h, MITT, combined 240 mg QD and BID, Day 14, read-out: MIC90 (all organisms)): 16 µg/mL
- MIC50 (336 h, Table 14, EE, 120 mg QD, Day 14, read-out: MIC50 (all organisms)): 8 µg/mL
- MIC90 (336 h, Table 14, EE, 120 mg QD, Day 14, read-out: MIC90 (all organisms)): 32 µg/mL
- MIC50 (336 h, Table 14, EE, 240 mg BID, Day 14, read-out: MIC50 (all organisms)): 4 µg/mL
- MIC90 (336 h, Table 14, EE, 240 mg BID, Day 14, read-out: MIC90 (all organisms)): 32 µg/mL
- MIC50 (336 h, Table 14, EE, 240 mg QD, Day 14, read-out: MIC50 (all organisms)): 8 µg/mL
- MIC90 (336 h, Table 14, EE, 240 mg QD, Day 14, read-out: MIC90 (all organisms)): 16 µg/mL
- MIC (336 h, read-out: Highest MIC to levofloxacin, mean (SD), MITT, 120 mg QD, Day 14): 20.3 µg/mL
- MIC (336 h, read-out: Highest MIC to levofloxacin, mean (SD), MITT, 240 mg BID, Day 14): 14.9 µg/mL
- MIC (336 h, read-out: Highest MIC to levofloxacin, mean (SD), MITT, 240 mg QD, Day 14): 9.28 µg/mL
- MIC (336 h, read-out: Highest MIC to levofloxacin, mean (SD), MITT, combined 240 mg QD and BID, Day 14): 12.1 µg/mL
- MIC (336 h, read-out: MIC to levofloxacin (all organisms), mean (SD), EE, 120 mg QD, Day 14): 13 µg/mL
- MIC (336 h, read-out: MIC to levofloxacin (all organisms), mean (SD), EE, 240 mg BID, Day 14): 8.4 µg/mL
- MIC (336 h, read-out: MIC to levofloxacin (all organisms), mean (SD), EE, 240 mg QD, Day 14): 6.6 µg/mL
- MIC (336 h, read-out: MIC to levofloxacin (all organisms), mean (SD), EE, combined 240 mg QD and BID, Day 14): 7.5 µg/mL
- MIC (336 h, read-out: MIC to levofloxacin (all organisms), mean (SD), MITT, 120 mg QD, Day 14): 12.9 µg/mL
- MIC (336 h, read-out: MIC to levofloxacin (all organisms), mean (SD), MITT, 240 mg BID, Day 14): 8.2 µg/mL
- MIC (336 h, read-out: MIC to levofloxacin (all organisms), mean (SD), MITT, 240 mg QD, Day 14): 6.5 µg/mL
- MIC (336 h, read-out: MIC to levofloxacin (all organisms), mean (SD), MITT, combined 240 mg QD and BID, Day 14): 7.3 µg/mL
- MIC (336 h, read-out: MIC to levofloxacin (all organisms), mean (SD), Table 14, EE, 120 mg QD, Day 14): 21.2 µg/mL
- MIC (336 h, read-out: MIC to levofloxacin (all organisms), mean (SD), Table 14, EE, 240 mg BID, Day 14): 15.2 µg/mL
- MIC (336 h, read-out: MIC to levofloxacin (all organisms), mean (SD), Table 14, EE, 240 mg QD, Day 14): 9.56 µg/mL
- MIC (336 h, read-out: MIC to levofloxacin (all organisms), mean (SD), Table 14, EE, combined 240 mg QD and BID, Day 14): 12.3 µg/mL
- MIC50 (672 h, EE and MITT, 120 mg QD, Day 28, read-out: MIC50 for P. aeruginosa isolates): 8 µg/mL
- MIC90 (672 h, EE and MITT, 120 mg QD, Day 28, read-out: MIC90 for P. aeruginosa isolates): 32 µg/mL
- MIC50 (672 h, EE and MITT, 240 mg BID, Day 28, read-out: MIC50 for P. aeruginosa isolates): 8 µg/mL
- MIC90 (672 h, EE and MITT, 240 mg BID, Day 28, read-out: MIC90 for P. aeruginosa isolates): 32 µg/mL
- MIC50 (672 h, EE and MITT, 240 mg QD, Day 28, read-out: MIC50 for P. aeruginosa isolates): 8 µg/mL
- MIC90 (672 h, EE and MITT, 240 mg QD, Day 28, read-out: MIC90 for P. aeruginosa isolates): 16 µg/mL
- MIC50 (672 h, EE, 120 mg QD, Day 28, read-out: MIC50 (all organisms)): 4 µg/mL
- MIC90 (672 h, EE, 120 mg QD, Day 28, read-out: MIC90 (all organisms)): 16 µg/mL
- MIC50 (672 h, EE, 240 mg BID, Day 28, read-out: MIC50 (all organisms)): 4 µg/mL
- MIC90 (672 h, EE, 240 mg BID, Day 28, read-out: MIC90 (all organisms)): 32 µg/mL
- MIC50 (672 h, EE, 240 mg QD, Day 28, read-out: MIC50 (all organisms)): 4 µg/mL
- MIC90 (672 h, EE, 240 mg QD, Day 28, read-out: MIC90 (all organisms)): 16 µg/mL
- MIC50 (672 h, EE, combined 240 mg QD and BID, Day 28, read-out: MIC50 (all organisms)): 4 µg/mL
- MIC90 (672 h, EE, combined 240 mg QD and BID, Day 28, read-out: MIC90 (all organisms)): 16 µg/mL
- MIC50 (672 h, MITT, 120 mg QD, Day 28, read-out: Highest MIC, MIC50): 8 µg/mL
- MIC90 (672 h, MITT, 120 mg QD, Day 28, read-out: Highest MIC, MIC90): 32 µg/mL
- MIC50 (672 h, MITT, 120 mg QD, Day 28, read-out: MIC50 (all organisms)): 4 µg/mL
- MIC90 (672 h, MITT, 120 mg QD, Day 28, read-out: MIC90 (all organisms)): 16 µg/mL
- MIC50 (672 h, MITT, 240 mg BID, Day 28, read-out: Highest MIC, MIC50): 8 µg/mL
- MIC90 (672 h, MITT, 240 mg BID, Day 28, read-out: Highest MIC, MIC90): 16 µg/mL
- MIC50 (672 h, MITT, 240 mg BID, Day 28, read-out: MIC50 (all organisms)): 4 µg/mL
- MIC90 (672 h, MITT, 240 mg BID, Day 28, read-out: MIC90 (all organisms)): 32 µg/mL
- MIC50 (672 h, MITT, 240 mg QD, Day 28, read-out: Highest MIC, MIC50): 8 µg/mL
- MIC90 (672 h, MITT, 240 mg QD, Day 28, read-out: Highest MIC, MIC90): 16 µg/mL
- MIC50 (672 h, MITT, 240 mg QD, Day 28, read-out: MIC50 (all organisms)): 4 µg/mL
- MIC90 (672 h, MITT, 240 mg QD, Day 28, read-out: MIC90 (all organisms)): 16 µg/mL
- MIC50 (672 h, MITT, combined 240 mg QD and BID, Day 28, read-out: Highest MIC, MIC50): 8 µg/mL
